# How the values were obtained:
# Format in all cases: cell-based
# [1] = test system: 4HNE-protein adducts in PC12 cells; assay: 4HNE-protein adduct formation, immunocytochemistry / fluorescent microscopy
# Text: Cell cultures: Pheochromocytoma (PC12) cells were provided by Dr. Regino Perez-Polo (University of Texas Medical Branch, Department of Human Biological Chemistry and Genetics) and maintained in EMEM supplemented with 10% fetal bovine serum, penicillin (100 IU/ml) and streptomycin (100 micrograms per milliliter (μg/ml)). Exponentially growing populations of PC12 cells were sub-cultured and used for all experiments. Immunocytochemistry: […] Cells were permeabilized by 0.3% Triton X-100, washed in PBS then incubated with primary antibody in PBS containing 0.05% Tween 20 (PBS-T). After washing 3 times in PBS-T, FITC-labeled anti-rabbit IgG (Santa Cruz Biotechnology Inc.) was added. Cells were washed (5 times, for 10 min) with PBS-T and mounted on microscope slides in anti-fade solution (Dako, Inc.). Images of cellular immunofluorescence were acquired using a NIKON Eclipse TE300 scanning microscope. Fluorescent microscopy and Western blot analysis was undertaken to investigate the extent of 4HNE protein-adduct formation in cultures of PC12 cells in the presence of CLN. Cells were pretreated with CLN or LAH in the presence or absence of 4HNE and then analyzed for the formation of 4HNE-protein adducts.
# SH-SY5Y cells = assay: Protection against retinoic acid toxicity in SH-SY5Y cells, graded under the microscope; details: for DIFFERENTIATION: Retinoic Acid 20 μM (Day 1) alone
# Experimental: Retinoic Acid was left on the plate for the duration of the experiment or until washed off. Colostrinin was added to the plate at the indicated doses. When added on Day 1, it was present during the entire experiment. When added on Day 5, it was incubated on the plate for 30 minutes at 37° C. and then removed. The wells were washed twice with PBS before adding β-Amyloid. Cultures were then observed under the microscope and graded.
# [2] = test system: 4HNE-protein adducts in PC12 cells; assay: 4HNE-protein adduct levels, Western blot analysis; details: 4HNE alone 25, 12.5, 6.2 nM
# Experimental: (§1) Western blot analysis: PC12 cells were plated at 7×10^6 cells/T75 flask. After exposure to 4HNE, colostrinin or their combination, cells were collected and lysed in 50 millimolar (mM) Tris, 5 mM EDTA, 150 mM NaCI, 0.5% NP-40, 10% glycerol and protease inhibitor cocktail (supplemented with 1 mM Na3VO4, 2 mM EDTA, 1 mM phenylmethylsulfonyl fluoride). Lysates were centrifuged at 14,000 g for 10 minutes (min) (4° C.) and 40 μg of protein was fractionated on a 10% SDS-polyacrylamide gel and transferred to protein-optimized membranes (Amersham, Inc.). p53 was detected using specific antibody (DO1; Santa Cruz Biotechnology, Inc.) at a dilution of 1:300. Adducts were detected using an antibody to HNE-protein adducts (Pharmingen, Inc.) at a dilution of 1:500. The anti-phospho-JNK antibody (New England Biolabs, Inc., Beverly, Mass.) was raised against a synthetic phosphopeptide (SFMMT*PY*VVTRYYR) corresponding to residues 179-193 of JNK. For visualization of primary antibody binding, all blots were incubated with horseradish peroxidase-conjugated secondary antibody (Amersham, Inc.) at a dilution of 1:2000, followed by chemiluminescence detection (Amersham, Inc.) and autoradiography.
# To confirm the results generated by immunochemistry, Western blot analysis was used to investigate changes in 4HNE-protein adduct levels in cells treated with 4HNE alone or CLN plus 4HNE.
# [3] = test system: intracellular GSH levels in PC12 cells; assay: Intracellular glutathione (GSH), o-phthalaldehyde fluorescence
# Experimental: Measurement of glutathione (GSH): In brief, PC12 cells were mock- or pre-treated with CLN or lactalbumin hydrolysate (LAH), both in 10 μg/ml concentration and then exposed to 4HNE (25 nM). PBS-washed (twice) cells were then extracted with 25% (w/v) metaphosphoric acid solution containing 5 mM EDTA. After ultracentrifugation (105,000 g for 30 min), 100 μl of 100 mM phosphate solution (pH 8.0) containing 5 mM EDTA and 10 μl of o-phthalaldehyde OPA(OPD; Molecular Probes, Inc.) was added to the supernatant, and the fluorescence intensity at 420 nm determined with excitation set at 350 nm (A. P. Senft et al., Anal Biochem., 280:80-86 (2000)).
# To investigate whether the anti-oxidant effect of CLN was due to protection of intracellular GSH levels, PC12 cells were pre-treated (with CLN or LAH) and exposed to 4HNE, as described above, and changes in GSH levels were determined fluorimetrically. […] OPA (o-phthalaldehyde or phthalic dicarboxaldehyde) is highly fluorescent when it is conjugated to GSH (A. P. Senft et al., Anal Biochem., 280:80-86 (2000)).
# JNK = assay: 4HNE-induced JNK phosphorylation, Western blot with anti-phospho-(Thr-183/Tyr-185) JNK antibody; details: PC12 cells
# Experimental: as §1, with “For visualization of primary antibody binding, all blots were incubated with horseradish peroxidase-conjugated secondary antibody (Amersham, Inc.) at a dilution of 1:2000, followed by chemiluminescence detection (Amersham, Inc.) and autoradiography.” left out
# The effect of CLN on 4HNE-induced activation of JNK in PC12 cells was investigated. The activation of JNK was monitored by Western blot analysis using a highly specific anti-phospho- (Thr-183/Tyr-185) JNK antibody (Materials and Methods).
# [4] = test system: GSH extrusion from PC12 cells; assay: Reduced GSH in extracellular fluid (GSH extrusion), OPA-GSH fluorescence; details: 4HNE, relative to CLN- or mock-treated cells, data not shown
# Experimental: To determine whether the loss of intracellular GSH was due to it's extrusion from the cells or oxidation, the level of reduced GSH in the extra-cellular fluid was evaluated.
# PC12 cells = assay: 4HNE-induced apoptosis, annexin V-PE / 7-AAD flow cytometry
# Text: Apoptosis is a specific mode of cell death recognized by a characteristic pattern of morphological, biochemical, and molecular changes. Currently the hallmark of apoptosis in vitro is DNA fragmentation and changes in plasma membrane reorganization that allows for the surface expression of phosphatidyl-D-serine and result in increased membrane permeability. The protection of cells against 4HNE by CLN using increased permeability and cell membrane expression of phosphatidyl-D-serine was investigated.
# Cells were simultaneously labeled with fluorochrome-conjugated annexin V-PE (detecting PS asymmetry in the plasma membrane, an early marker of apoptosis), 7-aminoactinomycin D (7-AAD) (detecting increased membrane permeability associated with both apoptosis and necrosis). A dual laser flow cytometer (either a Becton-Dickinson FACScan) was used for the simultaneous detection of the PE-conjugated annexin V (which is excited at […]), 7-AAD (excited at 488 nm and emitting at 670 nm). Fluorochrome compatibility was excellent, although careful intralaser compensation is required for simultaneous use of PE and 7-AAD.
# p53 = assay: 4HNE-induced activation of p53, Western blot; details: PC12 cells; 4HNE alone
# Experimental: as §1
# Whether CLN could modulate p53 levels after 4HNE exposure was also investigated.
compound,measurement,setting,value
OO [H2O2],fluorescence due to antibody binding to 4HNE-protein adducts,[1]; H2O2 100 μM,bright fluorescence
CC1=C(/C=C/C(C)=C/C=C/C(C)=C/C(=O)O)C(C)(C)CCC1 [Retinoic Acid],DIFFERENTIATION,SH-SY5Y cells; observed Day 2,++++ (Approximately 100% of the cells)
same,DIFFERENTIATION,SH-SY5Y cells; observed Day 8,+ (Approximately 25% of the cells)
same,onset of toxicity of retinoic acid,"SH-SY5Y cells; SH-SY5Y cells, retinoic acid 20 μM",started showing signs of toxicity by day 6
same,toxicity of retinoic acid,"SH-SY5Y cells; SH-SY5Y cells, retinoic acid 40 μM",toxicity developed too rapidly
CCCCCC(O)/C=C/C=O (stereo not drawn) [4HNE],levels of 4HNE-protein adducts (Western blot),[2],significant increase
same,loss of GSH,[3]; 25 nM 4HNE,more than 50%
same,intracellular GSH levels (OPA-GSH fluorescence),"[3]; 4HNE 25 nM alone, 30 min",significant reduction
same,JNK phosphorylation,JNK; 4HNE 25 nM alone,potent inducer of JNK phosphorylation
same,fluorescence due to antibody binding to 4HNE-protein adducts,[1]; 4HNE 25 nM alone,bright fluorescence
same,OPA-GSH-mediated fluorescence of extracellular fluid,[4],significant increase
same,toxic effects / apoptosis,PC12 cells; 4HNE 25 nM,did not show toxic effects or induce apoptosis
same,apoptosis,PC12 cells; 4HNE 100 nM,Induction of apoptosis
same,activation of p53,p53,induced its activation
Nc1ncnc2c1nc(Sc1ccc(Cl)cc1)n2[C@@H]1O[C@@H]2COP(=O)(O)O[C@H]2[C@H]1O [8-(4-chlorophenylthio)-cAMP],4HNE-induced JNK phosphorylation,"JNK; pretreatment with inhibitor of JNK activation, 4HNE",prevented 4HNE-induced JNK phosphorylation

# — patent publication US20050042300A1, “Use of colostrinin, constituent peptides thereof, and analogs thereof as inhibitors of apoptosis and other cellular damage” (priority 2002, published 2005)
